Like-named read-outs stand apart in the source and are kept apart here.
Experiments:
Format in all cases: in vivo
[1] = system: Erysiphe graminis f. sp. tritici; assay: Test E: wheat powdery mildew, spray the day before inoculation (disease rating, 100 = 100% disease control)
Summary of the method: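 Wheat seedlings sprayed to run-off with compound suspended in acetone/water 50/50 with 250 ppm Trem 014 (200 ppm equivalent to 500 g/ha); inoculated next day with Erysiphe graminis f. sp. tritici spore dust. Kept 7 days at 20° C, then rated 0–100% disease control versus controls.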

Plasmopara viticola = assay: Test B: grape downy mildew, spray 24 h after inoculation (disease rating, 100 = 100% disease control)
Summary of the method: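 Grape seedlings were inoculated with Plasmopara viticola and held 24 h saturated at 20 °C, then sprayed to run-off with compound suspension (acetone/water with 250 ppm Trem 014; 200 ppm ≈ 500 g/ha). After 5 days at 20 °C and 24 h saturation, disease was rated from 0 to 100% control versus untreated.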

[2] = system: Pseudoperonospora cubensis; assay: Test F: cucumber downy mildew, DMSO/acetone/water test suspension, spray the day before inoculation (disease rating, 100 = 100% disease control)
Description: The test compounds were first dissolved in dimethyl sulfoxide (DMSO) in an amount equal to 4% of the final volume and then suspended at the desired concentration (in ppm) in acetone and purified water (30/70 mix by volume). The resulting test suspensions were then used in test F. Spraying a 250 ppm test suspension on the test plants was the equivalent of a rate of 250 g/ha.
The test suspension was sprayed on cucumber seedlings. The following day the seedlings were inoculated with a spore suspension of Pseudoperonospora cubensis (the causal agent of cucumber downy mildew) and incubated in a saturated atmosphere at 20° C. for 24 h, and then moved to a growth chamber at 20° C. for 6 days, after which disease ratings were made.
Results for Tests A-F are given in Table A. In the table, a rating of 100 indicates 100% disease control and a rating of 0 indicates no disease control (relative to the controls). A dash (-) indicates no test results.

Phytophthora infestans [3] = assay: whole plant or invertebrate; conditions: for Test C disease rating (100 = 100% disease control, 0 = no disease control): tomato late blight
Phytophthora infestans [4] = assay: whole plant or invertebrate; conditions: for Test D disease rating (100 = 100% disease control, 0 = no disease control): tomato late blight
[5] = spray the day before inoculation, compounds without asterisk (not 40 or 10 ppm)
[6] = spray 24 h after inoculation, compounds without asterisk (not 40 or 10 ppm)
[7] = DMSO/acetone/water suspension, spray the day before inoculation, compounds without asterisk
[8] = spray 17 h after inoculation, compounds without asterisk (not 40 or 10 ppm)
[9] = sprayed the day before inoculation, 7 days at 20° C., unmarked compounds (no asterisk, not 40 or 10 ppm)
[10] = sprayed 24 h after inoculation, unmarked compounds (no asterisk, not 40 or 10 ppm)
[11] = DMSO/acetone/water test suspension, sprayed the day before inoculation, unmarked compounds (no asterisk)
[12] = sprayed the day before inoculation, unmarked compounds (no asterisk, not 40 or 10 ppm)
[13] = sprayed 17 h after inoculation, unmarked compounds (no asterisk, not 40 or 10 ppm)

| Structure (SMILES) | Test E disease rating (100 = 100% disease control, 0 = no disease control) [1, 5] | Test B disease rating (100 = 100% disease control, 0 = no disease control) (Plasmopara viticola; [6]) | Test F disease rating (100 = 100% disease control, 0 = no disease control) [2, 7] | Test C disease rating (100 = 100% disease control, 0 = no disease control) (Phytophthora infestans [3]; [5]) | Test D disease rating (100 = 100% disease control, 0 = no disease control) (Phytophthora infestans [4]; [8]) | also measured |
| --- | --- | --- | --- | --- | --- | --- |
| COc1ccc([C@@H](C)N(C)C(=O)c2csc(C3CCN(C(=O)Cc4cc(C)ccc4C)CC3)n2)cc1 [compound 59] | 21% | 84% | 93% | 98% | 63% | – |
| Cc1cc(C)n(CC(=O)N2CCC(c3nc(C(=O)N(C)[C@H](C)c4ccccc4)cs3)CC2)n1 [compound 65] | 0% | 92% | 100% | 100% | 100% | – |
| C[C@@H](NC(=O)c1csc(C2CCN(C(=O)Cc3cccc(Br)c3)CC2)n1)c1ccccc1C(F)(F)F [compound 275] | – | – | – | – | – | Test E disease rating (100 = 100% disease control, 0 = no disease control) [1, 9]: 0; Test B disease rating (100 = 100% disease control, 0 = no disease control) (Plasmopara viticola; [10]): 30; Test F disease rating (100 = 100% disease control, 0 = no disease control) [2, 11]: 0; Test C disease rating (100 = 100% disease control, 0 = no disease control) (Phytophthora infestans [3]; [12]): 9; Test D disease rating (100 = 100% disease control, 0 = no disease control) (Phytophthora infestans [4]; [13]): 0 |
| Cc1cc(C(F)(F)F)nn1CC(=O)N1CCC(c2nc(C(=O)N(C)C3CCCc4ccccc43)cs2)CC1 (stereo not shown) [Compound 188, N-methyl-2-[1-[[5-methyl-3-(trifluoromethyl)-1H-pyrazol-1-yl]acetyl]-4-piperidinyl]-N-(1,2,3,4-tetrahydro-1-naphthalenyl)-4-thiazolecarboxamide] | – | – | – | – | – | pest or weed control at 10 ppm ([1]; Blumeria graminis, topical, 168 h, spray the day before inoculation, tested at 10 ppm, read-out: Test E disease rating (100 = 100% disease control, 0 = no disease control)): 84%; pest or weed control at 10 ppm (Plasmopara viticola; Plasmopara viticola, 144 h, spray 24 h after inoculation, tested at 10 ppm, read-out: Test B disease rating (100 = 100% disease control, 0 = no disease control)): 99%; pest or weed control at 10 ppm ([2]; Pseudoperonospora cubensis, topical, 168 h, DMSO/acetone/water suspension, spray the day before inoculation, compound marked as tested at 10 ppm, read-out: Test F disease rating (100 = 100% disease control, 0 = no disease control)): 99%; pest or weed control at 10 ppm (Phytophthora infestans [3]; Phytophthora infestans, in Solanum lycopersicum, 144 h, read-out: Test C disease rating (100 = 100% disease control, 0 = no disease control)): 100%; pest or weed control at 10 ppm (Phytophthora infestans [4]; Phytophthora infestans, in Solanum lycopersicum, topical, 96 h, read-out: Test D disease rating (100 = 100% disease control, 0 = no disease control)): 99% |
| Cc1ccc(C)c(CC(=O)N2CCC(c3nc(C(=O)N(C)C4CCCCC4)cs3)CC2)c1 [compound 174] | 0% | 68% | 90% | 100% | 63% | – |
| Cc1ccc(C)c(CC(=O)N2CCC(c3nc(C(=O)N(C)[C@H](C)c4cccc(C(F)(F)F)c4)cs3)CC2)c1 [compound 67] | 0% | 10% | 99% | 68% | 0% | – |
| Cc1ccc(C)c(CC(=O)N2CCC(c3nc(C(=O)N(C)Cc4ccccc4)cs3)CC2)c1 [compound 167] | 0% | 27% | 99% | 97% | 0% | – |
| C[C@H](c1ccccc1)N(C)C(=O)c1coc(N2CCN(C(=O)Cc3cc(C(F)(F)F)ccc3Cl)CC2)n1 [compound 51] | 0% | 20% | 100% | 100% | 96% | – |
| Cc1nc(CC(=O)N2CCC(c3nc(C(=O)N(C)[C@H](C)c4ccccc4)cs3)CC2)c(C)s1 [compound 92] | 0% | 83% | 100% | 100% | 100% | – |
| Cc1ccc(C)c(CC(=O)N2CCC(c3nc(C(=O)N(C)C4CSCc5ccccc54)cs3)CC2)c1 (stereo not shown) [compound 172] | 0% | 43% | 99% | 100% | 100% | – |
| Cc1ccc(C)c(CC(=O)N2CCC(c3nc(C(=O)N(C)C4CCCc5c4ccc4ccccc54)cs3)CC2)c1 (stereo not shown) [compound 173] | 0% | 0% | 95% | 0% | 0% | – |
| C[C@H](c1ccccc1)N(C)C(=O)c1csc(C2CCN(C(=O)Cc3cc(C(F)(F)F)ccc3C(F)(F)F)CC2)n1 [compound 87] | 0% | 79% | 100% | 88% | 8% | – |
| Cc1ccc(C)c(CC(=O)N2CCC(c3nc(C(=O)N(C)C(C)c4cccs4)cs3)CC2)c1 (stereo not shown) [compound 89] | 43% | 100% | 93% | 99% | 99% | – |
| COc1ccc(C)cc1NC(=S)N1CCC(c2nc(C(=O)N(C)[C@H](C)c3ccccc3)cs2)CC1 [compound 159] | 73% | 95% | 93% | 99% | 91% | – |
| C[C@H](c1ccccc1)N(C)C(=O)c1coc(N2CCN(C(=O)Cc3cccc(Br)c3)CC2)n1 [compound 54] | 0% | 11% | 50% | 100% | 69% | – |
| CCCC(c1ccccc1)N(C)C(=O)c1csc(C2CCN(C(=O)Cc3cc(C)ccc3C)CC2)n1 (stereo not shown) [compound 82] | 55% | 100% | 93% | 97% | 53% | – |
| Cc1ccc(C)c(CC(=O)N2CCC(c3nc(C(=O)N[C@H](C)c4ccccc4)cs3)CC2)c1 [compound 283] | – | – | – | – | – | Test E disease rating (100 = 100% disease control, 0 = no disease control) [1, 9]: 0; Test B disease rating (100 = 100% disease control, 0 = no disease control) (Plasmopara viticola; [10]): 48; Test F disease rating (100 = 100% disease control, 0 = no disease control) [2, 11]: 99; Test C disease rating (100 = 100% disease control, 0 = no disease control) (Phytophthora infestans [3]; [12]): 84; Test D disease rating (100 = 100% disease control, 0 = no disease control) (Phytophthora infestans [4]; [13]): 0 |
| Cc1ccc(C)c(CC(=O)N2CCC(c3nc(C(=O)N(C)[C@@H](C)c4ccccc4)cs3)CC2)c1 [compound 68] | 0% | 47% | 95% | 100% | 16% | – |
| COc1ccc(CCNC(=O)c2csc(C3CCN(C(=O)Cc4cc(C)ccc4C)CC3)n2)cc1OC [compound 288] | – | – | – | – | – | Test E disease rating (100 = 100% disease control, 0 = no disease control) [1, 9]: 0; Test B disease rating (100 = 100% disease control, 0 = no disease control) (Plasmopara viticola; [10]): 73; Test F disease rating (100 = 100% disease control, 0 = no disease control) [2, 11]: 95; Test D disease rating (100 = 100% disease control, 0 = no disease control) (Phytophthora infestans [4]; [13]): 76 |

Source: patent US8586611B2 (priority 2005, dated 2013)
